Data as given in BindingDB's records for patent US11111253 (University of Pittsburgh, 2021).
pIC50: −log10 of the molar value.

molecular target: T1, Signal transducer and activator of transcription 1-alpha/beta (Homo sapiens, UniProt P42224); experiment: Bioassay
T1 sequence (P42224 whole entry): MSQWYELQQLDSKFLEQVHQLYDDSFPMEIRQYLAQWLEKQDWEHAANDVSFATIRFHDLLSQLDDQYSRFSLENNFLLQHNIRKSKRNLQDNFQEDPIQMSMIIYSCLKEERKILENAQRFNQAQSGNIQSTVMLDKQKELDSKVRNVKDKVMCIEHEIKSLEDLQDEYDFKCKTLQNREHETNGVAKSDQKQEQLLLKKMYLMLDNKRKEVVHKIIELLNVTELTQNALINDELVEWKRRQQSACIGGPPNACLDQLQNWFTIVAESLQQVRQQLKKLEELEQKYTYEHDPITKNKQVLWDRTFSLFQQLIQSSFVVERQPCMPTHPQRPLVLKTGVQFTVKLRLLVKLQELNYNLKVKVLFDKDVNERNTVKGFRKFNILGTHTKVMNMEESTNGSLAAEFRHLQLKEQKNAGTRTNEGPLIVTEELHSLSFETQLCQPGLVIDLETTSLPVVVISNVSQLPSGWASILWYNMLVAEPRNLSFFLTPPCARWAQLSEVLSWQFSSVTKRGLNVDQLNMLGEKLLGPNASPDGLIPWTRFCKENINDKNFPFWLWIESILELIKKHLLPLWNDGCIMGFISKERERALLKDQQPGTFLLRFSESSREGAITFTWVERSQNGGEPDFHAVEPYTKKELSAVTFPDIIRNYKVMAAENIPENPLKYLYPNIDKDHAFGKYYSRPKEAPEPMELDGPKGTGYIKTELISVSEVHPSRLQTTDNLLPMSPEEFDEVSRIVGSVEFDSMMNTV
Procedure: Compound samples (in 3-5 mg quantities) were evaluated in a variety of assays. All compound submissions were fully characterized (1H, 13C, IR, FIRMS), satisfied purity criteria (≥95% LC/MC, ELS).

Row | pIC50 | Compound
1 | < 4.30 | COc1ccc(C2=Nn3c(nnc3-c3cc(-c4ccccc4)n[nH]3)SC2)cc1 [US11111253, Compound 8b]
2 | < 4.30 | COc1ccc(C2=Nn3c(nnc3-c3cc(-c4ccccc4)n[nH]3)SC2CC(C)C)cc1 (stereo not drawn) [US11111253, Compound 28]
3 | < 4.30 | CC(C)CC1Sc2nnc(-c3[nH]nc4c3CCC4)n2N=C1c1ccc(Cl)c(Cl)c1 (stereo not drawn) [US11111253, Compound 27]
